Measurements reported in patent US7662810B2, “2-arylmethylazetidine carbapenem derivatives and preparation thereof” (Korea Research Institute of Chemical Technology, priority 2004, dated 2010).
In brackets after ≈: the same amount, converted by molar mass. Read-outs that look alike come from different tables or passages of the source.

What was measured:
[1] = target: T1, Dihydropeptidase-1 (DHP-1) (Sus scrofa, UniProt P22412)
T1 sequence (P22412 17-384): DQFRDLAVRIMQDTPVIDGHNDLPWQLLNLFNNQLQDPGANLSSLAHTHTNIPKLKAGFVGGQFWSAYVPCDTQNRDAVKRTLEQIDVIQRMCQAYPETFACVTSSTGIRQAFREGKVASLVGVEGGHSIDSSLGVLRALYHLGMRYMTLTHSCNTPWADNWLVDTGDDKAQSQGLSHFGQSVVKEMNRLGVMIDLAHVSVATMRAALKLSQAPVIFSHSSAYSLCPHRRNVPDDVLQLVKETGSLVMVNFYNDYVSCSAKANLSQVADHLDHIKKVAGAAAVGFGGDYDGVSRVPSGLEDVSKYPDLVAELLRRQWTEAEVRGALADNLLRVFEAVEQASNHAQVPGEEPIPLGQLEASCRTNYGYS
Experimental: (§2) The rate of degradation of the inventive compounds by the action of DHP-1 enzyme extracted from hog kidney was determined as follow.
(§3) 0.2 unit of the enzyme was allowed to react with the above solution at 30° C., and the absorbance at 299 nm of the remaining medicament was measured to determine the degradation rate. The absorbance was measured at 0, 0.5, 1, 2 and 4 hour points, and T1/2, the time when the concentration of the medicament become the half, was obtained by regression analysis.

[2] = test system: Staphylococcus pyogenes 77A; assay: Measurement of Minimum Inhibitory Concentration (MIC); format: cell-based; details: Staphylococcus pyogenes 77A
Procedure, shortened: (§1)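 Agar dilution on Müller-Hinton plates carrying serial twofold dilutions of compound (final 0.002–100 μg/ml), spotted with about 10^4 CFU/spot and incubated 18 h at 37 °C. Inocula came from 18 h shaken cultures in Fleisch extract broth, pH 7.4-7.5. MIC read after incubation.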

Escherichia coli 1507 E = assay: as above; format: cell-based
Procedure, shortened: as §1

[3] = test system: Enterobacter cloacae 1321 E; assay: as above; format: cell-based
Procedure, shortened: as §1

[4] = test system: Salmonella typhimurium 179; assay: as above; format: cell-based; details: Salmonella typhimurium 179
Procedure, shortened: as §1

[5] = test system: Staphylococcus pyogenes 308A; assay: as above; format: cell-based; details: Staphylococcus pyogenes 308A
Procedure, shortened: as §1

Escherichia coli TEM = assay: as above; format: cell-based
Procedure, shortened: as §1

Escherichia coli 078 = assay: as above; format: cell-based
Procedure, shortened: as §1

[6] = test system: Staphylococcus aureus 285; assay: as above; format: cell-based
Procedure, shortened: as §1

[7] = test system: Staphylococcus faecium MD 8b; assay: as above; format: cell-based; details: Staphylococcus faecium MD 8b
Procedure, shortened: as §1

[8] = test system: Klebsiella aerogenes 1522 E; assay: as above; format: cell-based
Procedure, shortened: as §1

[9] = test system: Klebsiella oxytoca 1082 E; assay: as above; format: cell-based
Procedure, shortened: as §1

Acute Toxicity Test = assay: Acute Toxicity Test
Experimental: The acute toxicity of the compound of Example 14 was tested using several groups of ICR mice each of 10 mice.

[10] = target: T1, Dihydropeptidase-1 (DHP-1); assay: Sensitivity Assay Against Dihydropeptidase-1 (DHP-1); details: pig, DHP-1 enzyme extracted from hog kidney
Experimental: as §2, §3

[11] = Staphylococcus aureus, read-out: MIC

With `COc1ccc(CN2CC(SC3=C(C(=O)[O-])N4C(=O)[C@H]([C@@H](C)O)[C@H]4[C@H]3C)C2)cc1.[K+]` [Exam. 14, Potassium(1R,5S,6S)-2-[1-(4-methoxybenzyl)-azetidine-3-yl-thio]-6-[(1R)-1-hydroxylethyl]-1-methylcarbapen-2-em-3-carboxylate] the “T1/2 (time when the concentration of the medicament become the half)” value [1] was 19.88, the MIC [2] was 0.002 mg/L and the MIC (Escherichia coli 1507 E) was 0.098 mg/L. The MIC [3] was 0.098 mg/L, the MIC [4] was 0.098 mg/L and the MIC [5] was 0.002 mg/L. The MIC (Escherichia coli TEM; Escherichia coli TEM) was 0.195 mg/L, the MIC (Escherichia coli 078) was 0.013 mg/L and the MIC [6] was 0.098 mg/L. For the same compound, the MIC [7] was 1.563 mg/L, the MIC [8] was 0.195 mg/L and the MIC [9] was 0.098 mg/L. The death (Acute Toxicity Test; ICR mice, 500, 1,000 and 2,000 mg/kg intraperitoneally, 7 days) was “no mice died” and the LD50 (Acute Toxicity Test; ICR mice, intraperitoneally injected, observed for 7 days) was “higher than 2,000 mg/kg”.
Work on `C[C@@H](O)[C@H]1C(=O)N2C(C(=O)O)=C(S[C@@H]3CN[C@H](C(=O)N(C)C)C3)[C@H](C)[C@H]12` [Meropenem, reference compound] yielded an MIC [2, 11] of 0.004 mg/L (≈ 0.0104 µM), an MIC (Escherichia coli 1507 E; read-out: MIC) of 0.025 mg/L (≈ 0.0652 µM) and an MIC ([3]; read-out: MIC) of 0.025 mg/L (≈ 0.0652 µM). The MIC ([4]; Salmonella enterica, read-out: MIC) was 0.049 mg/L (≈ 0.128 µM), the MIC [5, 11] was 0.007 mg/L (≈ 0.0183 µM) and the MIC (Escherichia coli TEM; Escherichia coli) was 0.025 mg/L (≈ 0.0652 µM). For the same compound, the MIC (Escherichia coli 078; read-out: MIC) was 0.025 mg/L (≈ 0.0652 µM), the MIC ([6]; read-out: MIC) was 0.098 mg/L (≈ 0.256 µM) and the MIC ([7]; MD8B, read-out: MIC) was 6.25 mg/L (≈ 16.3 µM). It also gave an MIC ([8]; read-out: MIC) of 0.049 mg/L (≈ 0.128 µM), an MIC ([9]; read-out: MIC) of 0.049 mg/L (≈ 0.128 µM) and a half-life at 500 μg/ml [10] of 18.3 h.
